Measured values taken from US12390498B2, “Treatment of clostridium difficile infection” (Vedanta Biosciences, Inc., priority 2016, dated 2025).

What was measured:
[1] = tested on: Clostridium difficile infection (CDI); conditions: cited from earlier work
[2] = Short-chain fatty acid producing abilities of Composition F strains

| Compound | treated patients experiencing CDI relapse ([1]; CDI patients) | preventing recurrent CDI ([1]; comparison with vancomycin) | SCFAs (short chain fatty acids produced) [2] |
| --- | --- | --- | --- |
| CCc1c(Cl)c(O)c(Cl)c(O)c1C(=O)O[C@H]1[C@H](O)[C@H](OC)[C@H](OC/C2=C\C=C\C[C@H](O)/C(C)=C/[C@H](CC)[C@@H](O[C@@H]3OC(C)(C)[C@@H](OC(=O)C(C)C)[C@H](O)[C@@H]3O)/C(C)=C/C(C)=C/C[C@@H]([C@@H](C)O)OC2=O)O[C@@H]1C [fidaxomicin] | 14% | superior to vancomycin |  |
| Bacteroides cellulosilyticus |  |  | A, S |
